Patent US5869477A, “β-methylcarbapenem derivatives, process for the preparation thereof and pharmaceutical composition comprising same” (priority 1995, dated 1999)
Like-named read-outs stand apart in the source and are kept apart here.

What was measured:
E. coli 1507 E = experiment: agar plate dilution method, MIC; format: cell-based; settings: about 10^7 CFU/ml, 37° C., 18 hours
Method: (§1) The antibacterial activities of the β-methylcarbapenem compounds of the present invention prepared in the above Examples were determined in accordance with the agar plate dilution method(Hoechst 345). Specifically,about 10^7 CFU/ml of test bacteria(Hoechst standard strains) was inoculated to a Muller-Hinton agar medium containing serial double dilutions of the test compounds, i.e., compounds prepared in Examples 1 to 3, and incubated at 37° C. for 18 hours. Tribactam(EP 416953) and SUN-5555(Santory Co., Japan) were employed as control materials for carbapenem and penem, respectively. When the incubation was completed, the minimum inhibitory concentration of each test compounds was determined.

S. aureus 285 = experiment: agar plate dilution method, MIC; format: cell-based; settings: about 10^7 CFU/ml, 37° C., 18 hours
Method: as §1

E. coli DC 0 = experiment: agar plate dilution method, MIC; format: cell-based; settings: about 10^7 CFU/ml, 37° C., 18 hours
Method: as §1

S. aureus SG 511 = experiment: agar plate dilution method, MIC; format: cell-based; settings: about 10^7 CFU/ml, 37° C., 18 hours
Method: as §1

S. aureus 503 = experiment: agar plate dilution method, MIC; format: cell-based; settings: about 10^7 CFU/ml, 37° C., 18 hours
Method: as §1

E. coli TEM = experiment: agar plate dilution method, MIC; format: cell-based; settings: about 10^7 CFU/ml, 37° C., 18 hours
Method: as §1

S. typhimurium = experiment: agar plate dilution method, MIC; format: cell-based; settings: about 10^7 CFU/ml, 37° C., 18 hours
Method: as §1

E. coli 078 = experiment: agar plate dilution method, MIC; format: cell-based; settings: about 10^7 CFU/ml, 37° C., 18 hours
Method: as §1

K. oxytoca 1082 E = experiment: agar plate dilution method, MIC; format: cell-based; settings: about 10^7 CFU/ml, 37° C., 18 hours
Method: as §1

E. cloacae 1321 E = experiment: agar plate dilution method, MIC; format: cell-based, Enterobacter cloacae; settings: about 10^7 CFU/ml, 37° C., 18 hours
Method: as §1

P. aeruginosa 1592 E = experiment: agar plate dilution method, MIC; format: cell-based, Pseudomonas aeruginosa; settings: about 10^7 CFU/ml, 37° C., 18 hours
Method: as §1

P. aeruginosa 9027 = experiment: agar plate dilution method, MIC; format: cell-based, Pseudomonas aeruginosa; settings: about 10^7 CFU/ml, 37° C., 18 hours
Method: as §1

P. aeruginosa 1771 M = experiment: agar plate dilution method, MIC; format: cell-based, Pseudomonas aeruginosa; settings: about 10^7 CFU/ml, 37° C., 18 hours
Method: as §1

P. aeruginosa 1771 = experiment: agar plate dilution method, MIC; format: cell-based, Pseudomonas aeruginosa; settings: about 10^7 CFU/ml, 37° C., 18 hours
Method: as §1

S. faecium MD 8b = experiment: agar plate dilution method, MIC; format: cell-based, Streptococcus faecium; settings: about 10^7 CFU/ml, 37° C., 18 hours
Method: as §1

S. pyogenes 308A = experiment: agar plate dilution method, MIC; format: cell-based, Streptococcus pyogenes; settings: about 10^7 CFU/ml, 37° C., 18 hours
Method: as §1

S. pyogenes 77A = experiment: agar plate dilution method, MIC; format: cell-based, Streptococcus pyogenes; settings: about 10^7 CFU/ml, 37° C., 18 hours
Method: as §1

K. aerogenes 1522 E = experiment: agar plate dilution method, MIC; format: cell-based, Klebsiella aerogenes; settings: about 10^7 CFU/ml, 37° C., 18 hours
Method: as §1

E. cloacae P 99 = experiment: agar plate dilution method, MIC; format: cell-based, Enterobacter cloacae; settings: about 10^7 CFU/ml, 37° C., 18 hours
Method: as §1

[1] = bioavailability indices in infected mice, one-compartment oral model; parameters: species or system I.C.R. mouse; settings: in vivo; for AUC / p.o./s.c. / Cmax / Tmax / half-life: 40 mg/kg; for pharmacokinetics values and p.o. absorption versus controls (in words) / Cmax / Tmax / half-life: po
Method: The in vivo antibacterial activities and pharmacological activities of the β-methylcarbapenem compounds of the present invention were tested as follows. Specifically, 4 to 5 week-old I.C.R. mouse, each weighing 22 to 25 g and infected with Streptococcus pyogenes 77A, were administered per os with the solutions of the compounds of Examples 5 and 9 dissolved in 10% DMSO, at a dosage of 40 mg/kg body weight. The bioavailability indices, e.g., Cmax, Tmax, t1/2, AUC and p.o./s.c. were determined in accordance with one-compartment oral model method(Drug Metabolism Reviews, 17, 331-348(1986)). The one-compartment oral model was prepared by curve fitting using Gauss-Newto method and calculation using PKCALC computer program.

p.o./s.c. ([1]; mouse) [%]	half-life ([1]; mouse) [min]	Compound	minimum inhibitory concentration (E. coli 1507 E)	minimum inhibitory concentration (S. aureus 285)	minimum inhibitory concentration (E. coli DC 0)	minimum inhibitory concentration (S. aureus SG 511)	minimum inhibitory concentration (S. aureus 503)	minimum inhibitory concentration (E. coli TEM)	minimum inhibitory concentration (S. typhimurium)	minimum inhibitory concentration (E. coli 078)	minimum inhibitory concentration (K. oxytoca 1082 E)	minimum inhibitory concentration (E. cloacae 1321 E)	minimum inhibitory concentration (P. aeruginosa 1592 E)	minimum inhibitory concentration (P. aeruginosa 9027)	minimum inhibitory concentration (P. aeruginosa 1771 M)	minimum inhibitory concentration (P. aeruginosa 1771)	minimum inhibitory concentration (S. faecium MD 8b)	minimum inhibitory concentration (S. pyogenes 308A)	minimum inhibitory concentration (S. pyogenes 77A)	minimum inhibitory concentration (K. aerogenes 1522 E)	other results
		CC(C)[C@@H](O)C1=C(C(=O)O)N2C(=O)[C@H]([C@@H](C)O)[C@H]2[C@H]1C [Example 1, potassium (1S, 5R, 6S)-2-[(1R)-1-hydroxy-2-methylpropyl]-6-[(1R)-1-hydroxyethyl]-1-methyl-2-carbapenem-3-carboxylate]	0.049	0.098	0.195	0.098	0.098	0.195	0.098	0.049	1.563	0.098	> 100	> 100	0.781	100	3.125	0.013	0.013	0.391	
		C[C@@H](O)[C@H]1C(=O)N2C(C(=O)O)=C([C@H](O)C3CC3)[C@H](C)[C@H]12 [Example 2, potassium (1S, 5R, 6S)-2-[(R)-(cyclopropyl) hydroxymethyl]-6-[(1R)-1-hydroxyethyl]-1-methyl-2-carbapenem-3-carboxylate]	0.049	0.049	0.098	0.049	0.049	0.098	0.098	0.098	0.781	0.098	100.0	100.0	1.563	100.0	0.781	0.007	0.007	0.195	
		C[C@@H](O)[C@H]1C(=O)N2C(C(=O)O)=C([C@H](O)C3CCCC3)[C@H](C)[C@H]12 [Example 3, potassium (1S, 5R, 6S)-2-[(R)-(cyclopentyl)hydroxymethyl]-6-[(1R)-1-hydroxyethyl]-1-methyl-2-carbapenem-3-carboxylate]	0.098	0.098		0.098	0.098	0.391	0.098	0.195	1.563	0.391	> 100.0	> 100.0	1.563	> 100.0	0.781	0.004	0.007	0.781	minimum inhibitory concentration (E. cloacae P 99): 6.250
32.50	16.2	Cc1oc(=O)oc1COC(=O)C1=C([C@H](O)C(C)C)[C@H](C)[C@@H]2[C@@H]([C@@H](C)O)C(=O)N12 [Example 5, (5-methyl-2-oxo-1,3-dioxolen-4-yl)methyl (1S, 5R, 6S)-2-[(1R)-1-hydroxy-2-methylpropyl]-6-[(1R)-1-hydroxyethyl]-1-methyl-2-carbapenem-3-carboxylate]																			AUC ([1]; mouse): 3.80; pharmacokinetics values and p.o. absorption versus controls (in words) ([1]; mouse): superior pharmacokinetics values and p.o. absorption over the controls; Cmax ([1]; mouse): 8770 ng/mL; Tmax ([1]; mouse): 10.2 min
32.42	19.8	CC(C)OC(=O)OC(C)OC(=O)C1=C([C@H](O)C(C)C)[C@H](C)[C@@H]2[C@@H]([C@@H](C)O)C(=O)N12 (stereo partly drawn) [Example 9, isopropyloxycarbonyloxy-1-ethyl (1S, 5R, 6S)-2-[(1R)-1-hydroxy-2-methylpropyl]-6-[(1R)-1-hydroxyethyl]-1-methyl-2-carbapenem-3-carboxylate]																			AUC ([1]; mouse): 6.78; pharmacokinetics values and p.o. absorption versus controls (in words) ([1]; mouse): superior pharmacokinetics values and p.o. absorption over the controls; Cmax ([1]; mouse): 10400 ng/mL; Tmax ([1]; mouse): 19.8 min

Compound	p.o./s.c. ([1]; mouse) [%]	half-life ([1]; mouse) [min]	minimum inhibitory concentration (E. coli 1507 E)	minimum inhibitory concentration (S. aureus 285)	minimum inhibitory concentration (E. coli DC 0)	minimum inhibitory concentration (S. aureus SG 511)	minimum inhibitory concentration (S. aureus 503)	minimum inhibitory concentration (E. coli TEM)	minimum inhibitory concentration (S. typhimurium)	minimum inhibitory concentration (E. coli 078)	minimum inhibitory concentration (K. oxytoca 1082 E)	minimum inhibitory concentration (E. cloacae 1321 E)	minimum inhibitory concentration (P. aeruginosa 1592 E)	minimum inhibitory concentration (P. aeruginosa 9027)	minimum inhibitory concentration (P. aeruginosa 1771 M)	minimum inhibitory concentration (P. aeruginosa 1771)	minimum inhibitory concentration (S. faecium MD 8b)	minimum inhibitory concentration (S. pyogenes 308A)	minimum inhibitory concentration (S. pyogenes 77A)	minimum inhibitory concentration (K. aerogenes 1522 E)	other results
C[C@@H](O)[C@H]1C(=O)N2C(C(=O)O)=C([C@H]3CCCO3)S[C@H]12 [SUN-5555, reference compound]	22.71	22.8	0.195	0.098	0.781	0.098	0.098	0.391	0.195	0.195	0.391	0.391	> 100.0	> 100.0	3.125	> 100.0	6.250	0.013	0.007	0.391	minimum inhibitory concentration (E. cloacae P 99): 1.563; Cmax ([1]; I.C.R. mouse infected with S. pyogenes 77A, per os, 10% DMSO, read-out: Cmax): 2640 ng/mL; Tmax ([1]; I.C.R. mouse infected with S. pyogenes 77A, per os, 10% DMSO, read-out: Tmax): 25.2 min
